Experiments:
Test in all cases: whole-cell patch-clamp, tsA201 cells
Assay type in all cases: cell-based
[1] = molecular target: T1, TREK-1 (Homo sapiens, UniProt O95069)
T1 construct: gene KCNK2; wild-type human TREK-1 (NP_055032.1)
T1 sequence (O95069 1-426): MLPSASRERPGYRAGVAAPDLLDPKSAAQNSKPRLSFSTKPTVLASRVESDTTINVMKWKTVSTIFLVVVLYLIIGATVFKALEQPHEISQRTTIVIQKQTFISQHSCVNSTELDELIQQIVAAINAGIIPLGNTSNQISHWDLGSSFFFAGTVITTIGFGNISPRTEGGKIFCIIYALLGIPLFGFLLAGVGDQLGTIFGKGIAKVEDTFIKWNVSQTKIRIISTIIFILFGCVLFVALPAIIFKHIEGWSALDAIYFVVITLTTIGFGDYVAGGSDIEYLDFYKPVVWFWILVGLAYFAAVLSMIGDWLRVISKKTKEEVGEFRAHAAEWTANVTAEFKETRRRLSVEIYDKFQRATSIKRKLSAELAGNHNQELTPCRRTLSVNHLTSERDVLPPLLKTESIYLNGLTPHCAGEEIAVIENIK

[2] = molecular target: T2, TRESK (Homo sapiens, UniProt Q7Z418)
T2 construct: gene KCNK18; wild-type human TRESK (NP_862823.1)
T2 sequence (Q7Z418 1-384): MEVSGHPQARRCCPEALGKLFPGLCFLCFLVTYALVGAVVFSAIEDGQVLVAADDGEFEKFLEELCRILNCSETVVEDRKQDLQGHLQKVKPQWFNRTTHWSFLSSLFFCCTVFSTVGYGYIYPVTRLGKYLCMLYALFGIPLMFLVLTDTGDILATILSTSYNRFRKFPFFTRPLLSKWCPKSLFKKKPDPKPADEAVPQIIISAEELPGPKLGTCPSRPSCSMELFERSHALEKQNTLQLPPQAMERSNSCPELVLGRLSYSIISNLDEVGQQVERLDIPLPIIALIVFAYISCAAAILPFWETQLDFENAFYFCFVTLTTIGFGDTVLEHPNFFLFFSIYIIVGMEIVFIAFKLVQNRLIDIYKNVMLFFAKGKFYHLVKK

[3] = molecular target: T1, TREK-1; remark: listed apart in the source
[4] = molecular target: T3, TREK-2 (Homo sapiens, UniProt P57789)
T3 construct: gene KCNK10; wild-type human TREK-2 (NP_612190.1)
T3 sequence (P57789 1-538): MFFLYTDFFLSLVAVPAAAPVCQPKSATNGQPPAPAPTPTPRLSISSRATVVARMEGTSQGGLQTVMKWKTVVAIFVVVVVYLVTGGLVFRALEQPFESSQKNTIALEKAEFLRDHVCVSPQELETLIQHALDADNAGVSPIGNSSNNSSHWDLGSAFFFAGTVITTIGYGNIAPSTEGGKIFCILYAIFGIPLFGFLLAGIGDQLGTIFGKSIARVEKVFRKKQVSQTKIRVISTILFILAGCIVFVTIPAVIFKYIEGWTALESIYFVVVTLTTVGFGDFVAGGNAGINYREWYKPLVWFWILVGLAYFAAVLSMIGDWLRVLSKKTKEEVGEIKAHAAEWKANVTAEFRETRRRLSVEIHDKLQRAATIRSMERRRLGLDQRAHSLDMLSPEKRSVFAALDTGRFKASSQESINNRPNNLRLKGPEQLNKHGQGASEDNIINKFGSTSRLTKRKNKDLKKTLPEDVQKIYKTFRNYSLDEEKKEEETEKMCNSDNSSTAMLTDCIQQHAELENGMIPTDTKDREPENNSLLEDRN

| Compound | inhibition at 100 µM [1] [%] | inhibition at 100 µM [2] [%] | EC50 [3] [µM] | inhibition at 100 µM [4] [%] |
| --- | --- | --- | --- | --- |
| Nc1nnc(-c2cc(C(F)(F)F)cc(C(F)(F)F)c2)c(N)n1 [CEN-092, 3,5-diamino-6-(3,5-bistrifluoromethylphenyl)-1,2,4-triazine] | 21 | 43 | – | – |
| CN1CCN(c2ncc(-c3cc(Cl)cc(Cl)c3Cl)c(N)n2)CC1 [sipatrigine] | – | – | 16 | 85 |
| Nc1nnc(-c2cccc(Cl)c2Cl)c(N)n1 [lamotrigine] | 30 | 35 | – | 14 |

— paper PMC8144350, “Block of TREK and TRESK K2P channels by lamotrigine and two derivatives sipatrigine and CEN-092” (Biochemistry and Biophysics Reports, 2021)
